Data from patent US11051515B2, “3-acyl-benzamides and their use as herbicides” (Bayer Aktiengesellschaft, priority 2017, dated 2021).

What was measured:
ALOMY [1] = experiment: Pre-emergence action against ALOMY; type: in vivo, Alopecurus myosuroides; settings: dosage 320 g/ha, pre-emergence, scored visually after 3 weeks vs untreated controls, 100% = plants have died, 0% = like control plants
Summary of the method: (§1)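 Seeds sown in sandy loam in wood-fiber pots and covered with soil. Greenhouse growth; visual damage scored after 3 weeks versus untreated controls (100% = dead, 0% = like control).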

AVEFA [2] = experiment: Pre-emergence action against AVEFA; type: in vivo, Avena fatua; settings: dosage 320 g/ha, scored visually after 3 weeks vs untreated controls
Summary of the method: as §1

CYPES [3] = experiment: Pre-emergence action against CYPES; type: in vivo, Cyperus esculentus; settings: pre-emergence, dosage 320 g/ha, scored visually after 3 weeks vs untreated controls
Summary of the method: as §1

ECHCG [4] = experiment: Pre-emergence action against ECHCG; type: in vivo, Echinochloa crus-galli; settings: pre-emergence, dosage 320 g/ha, scored visually after 3 weeks vs untreated controls
Summary of the method: as §1

LOLMU [5] = experiment: Pre-emergence action against LOLMU; type: in vivo, Lolium multiflorum; settings: dosage 320 g/ha, scored visually after 3 weeks vs untreated controls
Summary of the method: as §1

SETVI [6] = experiment: Pre-emergence action against SETVI; type: in vivo, Setaria viridis; settings: pre-emergence, dosage 320 g/ha, scored visually after 3 weeks vs untreated controls
Summary of the method: as §1

ABUTH [7] = experiment: Pre-emergence action against ABUTH; type: in vivo, Abutilon theophrasti; settings: pre-emergence, dosage 320 g/ha, scored visually after 3 weeks vs untreated controls
Summary of the method: as §1

AMARE [8] = experiment: Pre-emergence action against AMARE; type: in vivo, Amaranthus retroflexus; settings: pre-emergence, dosage 320 g/ha, scored visually after 3 weeks vs untreated controls
Summary of the method: as §1

MATIN [9] = experiment: Pre-emergence action against MATIN; type: in vivo, Matricaria inodora; settings: Dosage 320 g/ha, pre-emergence
Summary of the method: as §1

POLCO [10] = experiment: Pre-emergence action against POLCO; type: in vivo, Polygonum convolvulus; settings: Dosage 320 g/ha, pre-emergence
Summary of the method: as §1

STEME [11] = experiment: Pre-emergence action against STEME; type: in vivo, Stellaria media; settings: Dosage 320 g/ha, pre-emergence
Summary of the method: as §1

VIOTR [12] = experiment: Pre-emergence action against VIOTR; type: in vivo, Viola tricolor; settings: Dosage 320 g/ha, pre-emergence
Summary of the method: as §1

VERPE [13] = experiment: Pre-emergence action against VERPE; type: in vivo, Veronica persica; settings: Dosage 320 g/ha, pre-emergence
Summary of the method: as §1

CYPES [14] = experiment: Post-emergence action against CYPES; type: in vivo, Cyperus esculentus; settings: post-emergence, dosage 80 g/ha, visual assessment about 3 weeks after treatment vs untreated controls
Summary of the method: (§2)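 Post-emergence foliar spray on greenhouse plants at the one-leaf stage, using wettable-powder or emulsion-concentrate formulations in water (600 to […], plus 0.2% wetting agent). Damage scored by eye roughly 3 weeks later against untreated plants: 0% = like control, 100% = dead.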

ECHCG [15] = experiment: Post-emergence action against ECHCG; type: in vivo, Echinochloa crus-galli; settings: post-emergence, dosage 80 g/ha, visual assessment about 3 weeks after treatment vs untreated controls
Summary of the method: as §2

LOLMU [16] = experiment: Post-emergence action against LOLMU; type: in vivo, Lolium multiflorum; settings: dosage 80 g/ha, visual assessment about 3 weeks after treatment vs untreated controls
Experimental: Seeds of monocotyledonous and dicotyledonous weed and crop plants are laid out in sandy loam soil in wood-fiber pots, covered with soil and cultivated in a greenhouse under good growth conditions. 2 to 3 weeks after sowing, the test plants are treated at the one-leaf stage. The compounds of the invention, formulated in the form of wettable powders (WP) or as emulsion concentrates (EC), are then sprayed onto the green parts of the plants in the form of an aqueous suspension or emulsion at a water application rate equating to […], with addition of 0.2% wetting agent. After the test plants have been left to stand in the greenhouse under optimal growth conditions for about 3 weeks, the action of the preparations is assessed visually in comparison to untreated controls (herbicidal action in percent (%): 100% activity=the plants have died, 0% activity=like control plants). […] At the same time, inventive compounds leave Gramineae crops such as barley, wheat, rye, millet/Sorghum, corn or rice virtually undamaged when applied post-emergence, even at high active ingredient dosages. In addition, some substances are also harmless to dicotyledonous crops such as soya, cotton, oilseed rape, sugar beet or potatoes. Some of the compounds according to the invention have high selectivity and are therefore suitable for controlling unwanted vegetation in agricultural crops by the post-emergence method. The data of Tables B18 to B34 below illustrate, in an exemplary manner, the […] herbicidal action of the compounds according to the invention, the herbicidal activity being stated in percent.

SETVI [17] = experiment: Post-emergence action against SETVI; type: in vivo, Setaria viridis; settings: post-emergence, dosage 80 g/ha, visual assessment about 3 weeks after treatment vs untreated controls
Summary of the method: as §2

ABUTH [18] = experiment: Post-emergence action against ABUTH; type: in vivo, Abutilon theophrasti; settings: post-emergence, dosage 80 g/ha, visual assessment about 3 weeks after treatment vs untreated controls
Summary of the method: as §2

AMARE [19] = experiment: Post-emergence action against AMARE; type: in vivo, Amaranthus retroflexus; settings: post-emergence, dosage 80 g/ha, visual assessment about 3 weeks after treatment vs untreated controls
Summary of the method: as §2

MATIN [20] = experiment: Post-emergence action against MATIN; type: in vivo, Matricaria inodora; settings: post-emergence, dosage 80 g/ha, visual assessment about 3 weeks after treatment vs untreated controls
Summary of the method: as §2

PHBPU [21] = experiment: Post-emergence action against PHBPU; type: in vivo, Pharbitis purpurea; settings: post-emergence, dosage 80 g/ha
Summary of the method: as §2

STEME [22] = experiment: Post-emergence action against STEME; type: in vivo, Stellaria media; settings: post-emergence, dosage 80 g/ha
Summary of the method: as §2

VIOTR [23] = experiment: Post-emergence action against VIOTR; type: in vivo, Viola tricolor; settings: post-emergence, dosage 80 g/ha
Summary of the method: as §2

VERPE [24] = experiment: Post-emergence action against VERPE; type: in vivo, Veronica persica; settings: dosage 80 g/ha
Summary of the method: as §2

PHBPU [25] = experiment: Pre-emergence action against PHBPU; type: in vivo, Pharbitis purpurea; settings: Ipomoea purpurea, 504 h; Dosage 320 g/ha, pre-emergence
Summary of the method: as §1

ALOMY [26] = experiment: Post-emergence action against ALOMY; type: in vivo, Alopecurus myosuroides; settings: Alopecurus myosuroides, 504 h; Dosage 80 g/ha, post-emergence
Summary of the method: as §2

AVEFA [27] = experiment: Post-emergence action against AVEFA; type: in vivo, Avena fatua; settings: Avena fatua, 504 h; post-emergence, dosage 80 g/ha, visual assessment about 3 weeks after treatment vs untreated controls; read-out: Post-emergence action against AVEFA (herbicidal action in percent)
Summary of the method: as §2

POLCO [28] = experiment: Post-emergence action against POLCO; type: in vivo, Polygonum convolvulus; settings: Fallopia convolvulus, 504 h; post-emergence, dosage 80 g/ha
Summary of the method: as §2

For `CCn1nnnc1NC(=O)c1ccc(C(F)(F)F)c(C(C)=O)c1C` [2-14], the “Pre-emergence action against ALOMY (herbicidal activity in percent)” value (ALOMY [1]) was 80%, the “Pre-emergence action against AVEFA (herbicidal activity)” value (AVEFA [2]) was 90% and the “Pre-emergence action against CYPES (herbicidal activity)” value (CYPES [3]) was 90%. The “Pre-emergence action against ECHCG (herbicidal activity)” value (ECHCG [4]) was 100%, the “Pre-emergence action against LOLMU (herbicidal activity)” value (LOLMU [5]) was 80% and the “SETVI (Table B8, pre-emergence herbicidal activity)” value (SETVI [6]) was 100%. The “Pre-emergence action against ABUTH (herbicidal activity)” value (ABUTH [7]) was 100%, the “Pre-emergence action against AMARE (herbicidal activity)” value (AMARE [8]) was 100% and the “Pre-emergence action against MATIN” value (MATIN [9]) was 100%. The “Pre-emergence action against POLCO” value (POLCO [10]) was 80%, the “Pre-emergence action against STEME” value (STEME [11]) was 100% and the “Pre-emergence action against VIOTR” value (VIOTR [12]) was 100%. For the same molecule, the “Pre-emergence action against VERPE” value (VERPE [13]) was 100%, the “Post-emergence action against CYPES (herbicidal action in percent)” value (CYPES [14]) was 90% and the “Post-emergence action against ECHCG (herbicidal action in percent)” value (ECHCG [15]) was 100%. For the same molecule, the “Post-emergence action against LOLMU (herbicidal action in percent)” value (LOLMU [16]) was 80%, the “Post-emergence action against SETVI (herbicidal action in percent)” value (SETVI [17]) was 90% and the “Post-emergence action against ABUTH (herbicidal action in percent)” value (ABUTH [18]) was 100%. For the same molecule, the “Post-emergence action against AMARE (herbicidal action in percent)” value (AMARE [19]) was 100%, the “Post-emergence action against MATIN (herbicidal action in percent)” value (MATIN [20]) was 100% and the “Post-emergence action against PHBPU” value (PHBPU [21]) was 90. For the same molecule, the “Post-emergence action against STEME” value (STEME [22]) was 100, the “Post-emergence action against VIOTR” value (VIOTR [23]) was 100 and the “Post-emergence action against VERPE” value (VERPE [24]) was 80.

`CCC(=O)c1c(C(F)(F)F)ccc(C(=O)Nc2nnnn2C)c1Cl` [1-138] showed a pest or weed control at 320 g/ha (ALOMY [1]; Alopecurus myosuroides, 504 h, read-out: Pre-emergence action against ALOMY (herbicidal activity in percent)) of 100%, a pest or weed control at 320 g/ha (AVEFA [2]; Avena fatua, 504 h, read-out: Pre-emergence action against AVEFA (herbicidal activity)) of 100% and a pest or weed control at 320 g/ha (CYPES [3]; Cyperus esculentus, 504 h, read-out: Pre-emergence action against CYPES (herbicidal activity)) of 100%. The pest or weed control at 320 g/ha (ECHCG [4]; Echinochloa crus-galli, 504 h, read-out: Pre-emergence action against ECHCG (herbicidal activity)) was 100%, the pest or weed control at 320 g/ha (SETVI [6]; Setaria viridis, 504 h, read-out: SETVI (Table B8, pre-emergence herbicidal activity)) was 100% and the pest or weed control at 320 g/ha (ABUTH [7]; Abutilon theophrasti, 504 h, read-out: Pre-emergence action against ABUTH (herbicidal activity)) was 100%. It also gave a pest or weed control at 320 g/ha (AMARE [8]; Amaranthus retroflexus, 504 h, read-out: Pre-emergence action against AMARE (herbicidal activity)) of 100%, a pest or weed control at 320 g/ha (MATIN [9]; Tripleurospermum inodorum, 504 h) of 100% and a pest or weed control at 320 g/ha (PHBPU [25]) of 90%. It also gave a pest or weed control at 320 g/ha (VIOTR [12]; Viola tricolor, 504 h) of 100%, a pest or weed control at 320 g/ha (VERPE [13]; Veronica persica, 504 h) of 100% and a pest or weed control at 80 g/ha (ALOMY [26]) of 100%. For the same molecule, the pest or weed control at 80 g/ha (AVEFA [27]) was 100%, the pest or weed control at 80 g/ha (CYPES [14]; Cyperus esculentus, 504 h, read-out: Post-emergence action against CYPES (herbicidal action in percent)) was 90% and the pest or weed control at 80 g/ha (ECHCG [15]; Echinochloa crus-galli, 504 h, read-out: Post-emergence action against ECHCG (herbicidal action in percent)) was 90%. The pest or weed control at 80 g/ha (LOLMU [16]; Lolium multiflorum, 504 h, read-out: Post-emergence action against LOLMU (herbicidal action in percent)) was 100%, the pest or weed control at 80 g/ha (SETVI [17]; Setaria viridis, 504 h, read-out: Post-emergence action against SETVI (herbicidal action in percent)) was 90% and the pest or weed control at 80 g/ha (ABUTH [18]; Abutilon theophrasti, 504 h, read-out: Post-emergence action against ABUTH (herbicidal action in percent)) was 80%. It also gave a pest or weed control at 80 g/ha (AMARE [19]; Amaranthus retroflexus, 504 h, read-out: Post-emergence action against AMARE (herbicidal action in percent)) of 80%, a pest or weed control at 80 g/ha (MATIN [20]; Tripleurospermum inodorum, 504 h, read-out: Post-emergence action against MATIN (herbicidal action in percent)) of 100% and a pest or weed control at 80 g/ha (PHBPU [21]; Ipomoea purpurea, 504 h) of 100%. For the same molecule, the pest or weed control at 80 g/ha (POLCO [28]) was 80%, the pest or weed control at 80 g/ha (STEME [22]; Stellaria media, 504 h) was 100% and the pest or weed control at 80 g/ha (VIOTR [23]; Viola tricolor, 504 h) was 100%. The pest or weed control at 80 g/ha (VERPE [24]; Veronica persica, 504 h) was 90%.
